{"source": "patent US20110039762A1", "about": "“TARGETED ANTIMICROBIAL MOIETIES” (C3 JIAN, INC., priority 2009, published 2011)", "key": {"P. aeruginosa [1]": {"test_system": "P. aeruginosa", "format": "cell-based, Pseudomonas aeruginosa", "experimental": "Typically, the in vitro antimicrobial activity of antimicrobial agents is tested using standard NCCLS bacterial inhibition assays, or MIC tests (see, National Committee on Clinical Laboratory Standards “Performance Standards for Antimicrobial Susceptibility Testing,” NCCLS Document M100-S5 Vol. 14, No. 16, December 1994; “Methods for dilution antimicrobial susceptibility test for bacteria that grow aerobically-Third Edition,” Approved Standard M7-A3, National Committee for Clinical Standards, Villanova, Pa.).\n(§1) Briefly, ˜1×10^5 cfu/mL bacteria were diluted in TH (S. mutans), or Mueller-Hinton (MH) broth (all other organisms) and distributed to 96-well plates. Serially-diluted (2-fold) peptides were then added and the plates incubated at 37° C. for 18-24 h. […] All experiments were conducted 10 times."}, "[2]": {"test_system": "Mixed planktonic populations of P. aeruginosa, E. coli, S. epidermidis, and S. mutans", "experiment": "Microbial population shift assay", "format": "cell-based", "conditions": "10 μM peptide, 24 h", "experimental": "Peptide (10 μM) or mock-treatment (1× PBS) was then added and samples were incubated at 37° C. for 24 h under anaerobic conditions (80% N2, 15% CO2, 5% H2). […] Plates were then incubated 37° C. under aerobic conditions (TH plates were incubated anaerobically) and colonies counted after 24 h to determine survivors. […] Gram stains and direct microscopic observation (from select isolated colonies) were undertaken to confirm species identity (data not shown). The detection limit of the assay was 200 cfu/mL."}, "S. aureus": {"test_system": "S. aureus", "experiment": "Post-antibiotic effect assay (growth retardation after 10 min exposure)", "format": "cell-based, Staphylococcus aureus", "conditions": "S. aureus monoculture, peptide 10 min, then fresh medium", "experimental": "(§2) The activity and selectivity of MH-STAMPs after a 10 min incubation was determined by growth retardation experiments against targeted and untargeted bacteria in monocultures, as described previously (Id.). Cells from overnight cultures were diluted to ˜5×10^6 cfu/mL in MH (or TH with 1% sucrose for S. mutans), normalized by OD600 0.05-0.1 and seeded to 96-well plates. Cultures were then grown under the appropriate conditions for 2 h (3 h for S. mutans) prior to the addition of peptides for 10 min. Plates were then centrifuged at 3000×g for 5 min, the supernatants discarded, fresh medium returned (MH or TH without sucrose for S. mutans), and incubation resumed. Bacterial growth after treatment was then monitored over time by OD600."}, "E. coli [3]": {"test_system": "E. coli", "experiment": "Post-antibiotic effect assay (growth retardation after 10 min exposure)", "format": "cell-based, Escherichia coli", "conditions": "E. coli monoculture, peptide 10 min, then fresh medium", "experimental": "as §2"}, "[4]": {"test_system": "Klebsiella pneumoniae KAY 2026", "format": "cell-based", "experimental": "(§3) Aerobic Gram-negative organisms were grown in Lauri-Bertaini (LB) broth and Gram-positive bacteria in Brain-heart infusion (BHI) broth. Streptococcus mutans JM11 (spectinomycin resistant, UA140 background) was grown in Todd-Hewitt (TH) broth under anaerobic conditions (80% N2, 15% CO2, 5% H2) at 37° C. Merritt et al. (2005) J Microbiol Meth., 61: 161-170. All bacteria were grown overnight to an OD600 of 0.8-1.0 prior to appropriate dilution and antimicrobial testing.\nas §1"}, "[5]": {"test_system": "Staphylococcus aureus Newmann", "format": "cell-based", "experimental": "as §3, §1"}, "S. mutans [6]": {"test_system": "S. mutans", "format": "cell-based, Streptococcus mutans"}, "P. aeruginosa [7]": {"test_system": "P. aeruginosa", "experiment": "Post-antibiotic effect assay (growth retardation after 10 min exposure)", "format": "cell-based, Pseudomonas aeruginosa", "conditions": "P. aeruginosa monoculture, peptide 10 min, then fresh medium", "experimental": "as §2"}, "E. coli [8]": {"test_system": "E. coli", "format": "cell-based, Escherichia coli", "procedure,_shortened": "(§4)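 Ten repeat experiments used NCCLS dilution susceptibility testing: MH broth, ˜1×10^5 cfu/mL starting density, 2-fold peptide titration, 18-24 h incubation at 37° C.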"}, "S. epidermidis [9]": {"test_system": "S. epidermidis", "experiment": "Post-antibiotic effect assay (growth retardation after 10 min exposure)", "format": "cell-based, Staphylococcus epidermidis", "conditions": "S. epidermidis monoculture, peptide 10 min, then fresh medium", "experimental": "as §2"}, "S. mutans [10]": {"test_system": "S. mutans", "experiment": "Post-antibiotic effect assay (growth retardation after 10 min exposure)", "format": "cell-based, Streptococcus mutans", "conditions": "S. mutans monoculture, peptide 10 min, then fresh medium", "experimental": "as §2"}, "panel of bacteria": {"test_system": "panel of bacteria", "experiment": "General antimicrobial activity by MIC against a panel of bacteria", "format": "cell-based", "conditions": "panel of bacteria (Table 19)", "experimental": "as §1"}, "S. epidermidis [11]": {"test_system": "S. epidermidis", "format": "cell-based, Staphylococcus epidermidis", "procedure,_shortened": "as §4"}, "S. mutans UA140 biofilms": {"test_system": "S. mutans UA140 biofilms", "experiment": "Photodynamic antimicrobial assay against single-species biofilms", "format": "cell-based, Streptococcus mutans", "conditions": "5 μM, dark controls", "experimental": "To evaluate C16-RB against monoculture biofilms, S. mutans UA140 was grown overnight in TH prior to inoculation for biofilm formation. For biofilms, 1:5000 dilution of overnight culture was made into TH with 1% sucrose in 2 mL centrifuge tubes (200 μL volume) and grown 24 h under anaerobic conditions. After incubation, biofilms were treated for 5 min with 5 or 25 μM C16-RB or 5 μM RB in 1× PBS, or PBS alone, followed by removal of supernatant and exposure to 5 min blue light (emission 400-550 nm, power 400 mW/cm^2) from an Astralis 7 (Ivoclar Vivodent, Austria) handheld LED commonly used as a dental curing light. The light source was suspended 4 cm from the tube bottom (even with the mouth of the tube). A duplicate set of samples were left covered to serve as dark controls. After treatment, biofilms were mechanically disrupted and plated to determine cfu/mL."}, "[12]": {"test_system": "BHK-21 (ATCC CRL-10) fibroblasts", "experiment": "Cytotoxicity, Promega CellTiterGlo assay", "format": "cell-based, hamster", "experimental": "Streptococcus oralis ATCC 10557, Streptococcus gordonii (Challis), Streptococcus sanguinis (NY101), Streptococcus mitis ATCC 903, Streptococcus salivarius ATCC 13419 and S. mutans wild-type UA140 and JM11 (spectinomycin-resistant) strains were grown in Todd-Hewitt (TH) broth 37° C. in an anaerobic atmosphere of 80% N2, 10% CO2, and 10% H2. BHK-21 (ATCC CRL-10) fibroblasts were propagated in DMEM with 10% FBS, 1 mM sodium pyruvate, 100 units/mL penicillin G, and 100 μg/mL streptomycin at 37° C. with 5% CO2. Cells were detached with 0.25% trypsin and subcultured as recommended by the supplier.\nThe effect of RB and C16-RB on […] fibroblasts was ascertained by utilizing the Promega CellTiterGlo assay, as described by the manufacturer. Briefly, fibroblasts were grown to confluence, detached, and seeded to ˜5,000 cells per well in a 96-well opaque walled, clear bottom 96-well plate (Nunc International). For long-term dark toxicity, cells were allowed to attach to for 18 h before the culture medium was replaced with medium plus serially-diluted RB or C16-RB (200 μM to 390 nM) or medium alone. After 18-24 h, equal volume Cell Titer Glo reagent was added to each well and mixed. Luciferace activity was then quantified to measure cell viability (Varian Fluorometer in Biolumenescence mode). To measure cytotoxicity after RB or C16-RB light exposure, cells were seeded at ˜10,000 cells per well and allowed to attach for 4 h. Cell growth medium was then replaced with RB or C16-RB containing medium, prior to exposure (a single well at a time) with blue light (400 mW/cm^2) suspended ˜3 cm from the well bottom. After exposure, cultures were disrupted with Cell Titer Glo and luciferase activity quantitated as above."}, "[13]": {"test_system": "mixed biofilms of S. mutans JM11 plus S. oralis, S. gordonii, S. mitis, S. sanguinis, and S. salivarius", "experiment": "Photodynamic antimicrobial assay against multispecies biofilms", "format": "cell-based", "conditions": "blue light", "experimental": "To gauge C16-RB selectivity for S. mutans, similar assays were conducted against multispecies biofilms. Mixed biofilms were seeded by diluting (1:5000) a mixture of equal parts S. oralis, S. gordonii, S. mitis, S. sanguinis, S. salivarius, and S. mutans JM11 (made from overnight cultures) into TH with 1% sucrose, 1% glucose, and 1% mannose. Biofilms were incubated and treated as described above with the addition of vitamin C or potassium gluconate. After the addition of agent and 5 min incubation, biofilms were washed 1× with 1× PBS prior to light exposure. After PDT and biofilm disruption, survivors were plated on TH, and TH supplemented with 800 μg/mL spectinomycin, which allowed for quantitation of surviving total oral streptococci and surviving S. mutans, respectively."}}, "note": "pIC50: −log10 of the molar value. Peptide text beside a SMILES is read from it.", "data": [{"smiles": "CC[C@H](C)[C@H](NC(=O)[C@@H](N)Cc1ccccc1)C(=O)N[C@@H](CCCNC(=N)N)C(=O)N[C@@H](CCCCN)C(=O)N[C@@H](Cc1ccccc1)C(=O)N[C@@H](CC(C)C)C(=O)N[C@@H](CCCCN)C(=O)N[C@@H](CCCCN)C(=O)N[C@@H](Cc1c[nH]c2ccccc12)C(=O)N[C@@H](CC(C)C)C(=O)N[C@@H](CC(C)C)C(N)=O", "note": "[BD2.20] (H-FIRKFLKKWLL-NH2; N-terminus assumed)", "values": [{"measurement": "MIC", "setting": "P. aeruginosa [1]", "result": "14.4 ± 4.40", "unit": "µM"}, {"measurement": "recoverable (surviving) cfu/mL", "setting": "[2]; E. coli in mixed culture", "result": "significant loss of recoverable cfu/mL"}, {"measurement": "recoverable (surviving) cfu/mL", "setting": "[2]; P. aeruginosa in mixed culture", "result": "significant loss of recoverable cfu/mL"}, {"measurement": "recoverable (surviving) cfu/mL", "setting": "[2]; S. epidermidis in mixed culture", "result": "significant loss of recoverable cfu/mL"}, {"measurement": "recoverable (surviving) cfu/mL", "setting": "[2]; S. mutans in mixed culture", "result": "significant loss of recoverable cfu/mL"}, {"measurement": "bacterial growth (OD600) after treatment", "setting": "S. aureus", "result": "inhibited"}, {"measurement": "bacterial growth (OD600) after treatment", "setting": "E. coli [3]", "result": "inhibited"}, {"measurement": "MIC", "setting": "[4]", "result": "2.98 ± 0.47", "unit": "µM"}, {"measurement": "MIC", "setting": "[5]", "result": "5.625 ± 1.29", "unit": "µM"}, {"measurement": "MIC", "setting": "S. mutans [6]", "result": "2.86 ± 0.60", "unit": "µM"}, {"measurement": "bacterial growth (OD600) after treatment", "setting": "P. aeruginosa [7]", "result": "robust antimicrobial activity"}, {"measurement": "MIC", "setting": "E. coli [8]", "result": "5.47 ± 1.41", "unit": "µM"}, {"measurement": "bacterial growth (OD600) after treatment", "setting": "S. epidermidis [9]", "result": "inhibited"}, {"measurement": "bacterial growth (OD600) after treatment", "setting": "S. mutans [10]", "result": "robust antimicrobial activity"}, {"measurement": "general antimicrobial activity by MIC", "setting": "panel of bacteria", "result": "robust MICs"}, {"measurement": "MIC", "setting": "S. epidermidis [11]", "result": "5.11 ± 1.58", "unit": "µM"}]}, {"smiles": "O=C1OC2(c3cc(I)c(O)c(I)c3Oc3c2cc(I)c(O)c3I)c2c(Cl)c(Cl)c(Cl)c(Cl)c21", "note": "[RB, rose bengal]", "values": [{"measurement": "decrease in cfu/mL", "setting": "S. mutans UA140 biofilms", "result": "appreciable decreases in cfu/mL were not observed"}, {"measurement": "light-dependent (photo-associated) toxicity", "setting": "[12]; BHK cells, blue light", "result": "light-dependent toxicity was observed"}, {"measurement": "pIC50", "setting": "[12]; BHK, 5 min dark", "result": "< 4.00"}, {"measurement": "photodynamic antimicrobial activity, selectivity", "setting": "[13]; mixed biofilm", "result": "strong indiscriminant photodynamic antimicrobial effects"}, {"measurement": "ratio of surviving S. mutans:non-cariogenic streptococci cfu", "setting": "[13]; plus potassium gluconate", "result": "~1"}]}]}
